Residue numbers refer to the chain shown, from its start. Like-named read-outs stand apart in the source and are kept apart here.

Common to all, as to type: cell-based
Assay [1] addresses T1, ETA WT (Homo sapiens, UniProt P25101).
T1 construct: expressed in transfected cells; host or cells: CHO-K1
T1 sequence (P25101 21-427): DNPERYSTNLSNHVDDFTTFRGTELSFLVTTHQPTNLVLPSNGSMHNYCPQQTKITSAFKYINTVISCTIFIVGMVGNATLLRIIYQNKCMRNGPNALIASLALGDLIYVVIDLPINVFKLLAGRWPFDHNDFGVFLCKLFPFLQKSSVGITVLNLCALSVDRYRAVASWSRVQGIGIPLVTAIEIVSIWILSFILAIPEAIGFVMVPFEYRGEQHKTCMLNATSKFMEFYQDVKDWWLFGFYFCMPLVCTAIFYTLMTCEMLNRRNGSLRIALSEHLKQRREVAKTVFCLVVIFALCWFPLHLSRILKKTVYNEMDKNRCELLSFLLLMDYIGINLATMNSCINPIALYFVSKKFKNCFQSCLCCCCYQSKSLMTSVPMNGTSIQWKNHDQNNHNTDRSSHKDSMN
As to the kind of experiment: Calcium mobilization assay, antagonist mode (ET-1 stimulated), CHO-K1 cells. The protocol: (§1) CHO-K1 cells were cultured in Ham’s F-12K (Kaighn’s) Medium (Gibco-Thermo Fisher Scientific) supplemented with 10% (v/v) fetal bovine serum (FBS; Gibco-Thermo Fisher Scientific), and 100 U/mL Penicillin-Streptomycin (Gibco-Thermo Fisher Scientific) in a humidified incubator at 37 °C with 5% CO2. Cells were seeded in 6-cm dishes overnight; when the density reached 60%–80%, the cells were transferred to F12K Medium supplemented with 10% FBS and transfected with 1.5 μg DNA encoding the ETA WT or mutants or 3 μg DNA encoding the ETB WT or mutants using TransIT2020 (Mirus Biosciences). The next day, transfected cells were harvested from the plate using Versene buffer (Gibco-Thermo Fisher Scientific) and seeded into black-sided, clear-bottomed 384-well plates (Agilent) at a density of 1,5000 cells per well. After 20 h, the 1% dFBS medium was removed, and cells were loaded with 20 μL/well of 1× Calcium 6 dye (Molecular Devices) and incubated at 37 °C for 1 h in the dark. […] All data were analyzed using GraphPad Prism 8 and the data are from at least three independent replicate experiments. All plots are shown as means ± SEM. Data were determined using one-way ANOVA followed by Dunnett’s multiple test compared with WT. The top value was normalized to 100% and the bottom value was normalized to 0% for the final presentation. Nonlinear curve fit was performed using a four-parameter logistic equation (log (agonist vs response) or log (inhibitor vs response)).
(A change in cytosolic calcium serves as a functional read-out for many receptors and channels.)

For assay [2], the target named is T2, ETA F161^3.28A (Homo sapiens, UniProt P25101, F161A).
T2 construct: expressed in transfected cells; host or cells: CHO-K1
T2 sequence (P25101 21-427 F161A): T1 sequence (P25101 21-427) with F141A
Description: Calcium mobilization assay, antagonist mode. On the procedure: as §1

Assay [3] concerns the target T3, ETA L259^5.42A (Homo sapiens, UniProt P25101, L259A).
T3 construct: expressed in transfected cells; host or cells: CHO-K1
T3 sequence (P25101 21-427 L259A): T1 sequence (P25101 21-427) with L239A
Description: Calcium mobilization assay, antagonist mode. On the procedure: as §1

For assay [4], the target named is T4, ETA L322^6.51A (Homo sapiens, UniProt P25101, L322A).
T4 construct: expressed in transfected cells; host or cells: CHO-K1
T4 sequence (P25101 21-427 L322A): T1 sequence (P25101 21-427) with L302A
Description: Calcium mobilization assay, antagonist mode. On the procedure:
as §1

For assay [5], the target named is T5, ETA R326^6.55A (Homo sapiens, UniProt P25101, R326A).
T5 construct: expressed in transfected cells; host or cells: CHO-K1
T5 sequence (P25101 21-427 R326A): T1 sequence (P25101 21-427) with R306A
As to the kind of experiment: Calcium mobilization assay, antagonist mode. The protocol: as §1

Assay [6] has as its target T6, ETA Y129^2.53A (Homo sapiens, UniProt P25101, Y129A).
T6 construct: expressed in transfected cells; host or cells: CHO-K1
T6 sequence (P25101 21-427 Y129A): T1 sequence (P25101 21-427) with Y109A
Description: Calcium mobilization assay, antagonist mode. On the procedure: as §1

Assay [7] deals with T7, ETA Y129^2.53F (Homo sapiens, UniProt P25101, Y129F).
T7 construct: expressed in transfected cells; host or cells: CHO-K1
T7 sequence (P25101 21-427 Y129F): T1 sequence (P25101 21-427) with Y109F
As to the kind of experiment: Calcium mobilization assay, antagonist mode. On the procedure:
as §1

In assay [8] the target is T8, ETA Y129^2.53H (Homo sapiens, UniProt P25101, Y129H).
T8 construct: expressed in transfected cells; host or cells: CHO-K1
T8 sequence (P25101 21-427 Y129H): T1 sequence (P25101 21-427) with Y109H
Description: Calcium mobilization assay, antagonist mode. On the procedure: as §1

Assay [9] has as its target T9, ETA Y263^5.46A (Homo sapiens, UniProt P25101, Y263A).
T9 construct: expressed in transfected cells; host or cells: CHO-K1
T9 sequence (P25101 21-427 Y263A): T1 sequence (P25101 21-427) with Y243A
As to the kind of experiment: Calcium mobilization assay, antagonist mode. The protocol:
as §1

For assay [10], the target named is T10, ETB H150^2.53Y (Homo sapiens, UniProt P24530, H150Y).
T10 construct: expressed in transfected cells; host or cells: CHO-K1
T10 sequence (P24530 27-442 H150Y): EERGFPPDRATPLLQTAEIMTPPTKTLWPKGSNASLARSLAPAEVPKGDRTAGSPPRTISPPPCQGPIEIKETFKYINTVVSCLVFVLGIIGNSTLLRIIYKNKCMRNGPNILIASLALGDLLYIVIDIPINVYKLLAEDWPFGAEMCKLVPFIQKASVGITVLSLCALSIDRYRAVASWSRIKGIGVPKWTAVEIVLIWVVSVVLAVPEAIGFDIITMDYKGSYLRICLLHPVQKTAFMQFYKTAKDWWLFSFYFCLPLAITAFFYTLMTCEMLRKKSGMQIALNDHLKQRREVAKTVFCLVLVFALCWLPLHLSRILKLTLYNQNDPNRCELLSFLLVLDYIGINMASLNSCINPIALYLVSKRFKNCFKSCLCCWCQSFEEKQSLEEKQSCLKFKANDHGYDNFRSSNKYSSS
Description: Calcium mobilization assay, antagonist mode. On the procedure:
as §1

In assay [11] the target is T11, ETB V177^3.28F+H150^2.53Y (Homo sapiens, UniProt P24530, H150Y/V177F).
T11 construct: expressed in transfected cells; host or cells: CHO-K1
T11 sequence (P24530 27-442 H150Y/V177F): T10 sequence (P24530 27-442 H150Y) with V151F
As to the kind of experiment: Calcium mobilization assay, antagonist mode. The protocol: as §1

[12] abbreviates: CHO-K1 cells, n = 5, read-out: IC50, inhibition activity on ETA in calcium mobilization assay.
Setting [13] is: read-out: pIC50±S.E.M. (converted).

Turning to `COC(c1ccccc1)(c1ccccc1)[C@H](Oc1nc(C)cc(C)n1)C(=O)O` [ambrisentan], the IC50 is 0.6 nM in assay [1] (setting [12]); 0.389 nM in assay [1] (setting [13]); 89.1 nM in assay [2]; 15500 nM in [3]; 575 nM in assay [4]; 7940 nM in assay [5]. Moreover, the IC50 is 204 nM in assay [6], 2.34 nM in assay [7], 575 nM in assay [8] and 813 nM in assay [9].
In the case of `CCCNS(=O)(=O)Nc1ncnc(OCCOc2ncc(Br)cn2)c1-c1ccc(Br)cc1` [macitentan, N-[5-(4-bromophenyl)-6-[2-[(5-bromo-2-pyrimidinyl)oxy]ethoxy]-4-pyrimidinyl]-N’-propylsulfamide], the IC50 is 1.3 nM in assay [1] (setting [12]); 1.17 nM in assay [1] (setting [13]); 17.8 nM in [2]; 234 nM in assay [3]; 347 nM in assay [4]; 36.3 nM in [5]. The IC50 in assay [6] was 1020 nM; in [7], 1.2 nM; in [8], 891 nM; in [9], 15.5 nM.
As to `COc1nc(C)cnc1NS(=O)(=O)c1cccnc1-c1ccc(-c2nnco2)cc1` [zibotentan], the IC50 is 56200 nM in assay [10] and 33100 nM in assay [11].

These data come from paper PMC11286772, “Structural basis of antagonist selectivity in endothelin receptors” (Cell Discovery, 2024).
